Results from patent publication US5675003A, “3-ammoniopropenyl cephalosporin compounds as antibacterial agents” (Korea Institute of Science and Technology, priority 1995, dated 1997).
≈ marks a conversion by molar mass, not a printed value.

Columns and labels:
Test in all cases: MIC, in vitro agar dilution method
Type in all cases: cell-based
Escherichia coli TEM = details: E.c.3, Escherichia coli TEM
Procedure: (§1) The MICs of the new cephalosporins of the present invention against Gram-positive and Gram-negative bacteria were determined by an in vitro agar dilution method. For comparisons, the MIC values of ceftazidime are also listed.
(§2) In vitro antimicrobial activity of the cephalosporins (l) (MIC:
E.c.3, Escherichia coli TEM;

[1] = tested on: Enterobacter cloacae 1321 E; details: En.c.2, Enterobacter cloacae 1321 E; agar dilution; read-out: MIC
Procedure: as §1, §2
En.c.2, Enterobacter cloacae 1321 E.

Escherichia coli O55 = details: E.c.1, Escherichia coli O55
Procedure: as §1, §2
E.c.1, Escherichia coli O55;

[2] = tested on: Pseudomonas aeruginosa 1592 E; details: P.a.2, Pseudomonas aeruginosa 1592 E; agar dilution; read-out: MIC
Procedure: as §1, §2
P.a.2, Pseudomonas aeruginosa 1592 E;

[3] = tested on: Streptococcus pyogenes A 77; details: A77; S.p.2, Streptococcus pyogenes A 77; agar dilution; read-out: MIC
Procedure: as §1, §2
S.p.2, Streptococcus pyogenes A 77;

[4] = tested on: Pseudomonas eruginosa 1771; details: P.a.3, Pseudomonas eruginosa 1771
Procedure: as §1, §2
P.a.3, Pseudomonas eruginosa 1771;

Escherichia coli DC0 = details: E.c.2, Escherichia coli DC0
Procedure: as §1, §2
E.c.2, Escherichia coli DC0;

Streptococcus faecium MD = details: Enterococcus faecium; S.f., Streptococcus faecium MD; agar dilution; read-out: MIC
Procedure: as §1, §2
S.f., Streptococcus faecium MD;

[5] = tested on: Staphylococcus aureus 503; details: S.a.3, Staphylococcus aureus 503; agar dilution; read-out: MIC
Procedure: as §1, §2
S.a.3, Staphylococcus aureus 503;

E.c.5 = details: Escherichia coli, E.c.5 (strain not defined)
Procedure: as §1

Salmonella typhimurium = details: Salmonella enterica; S.t., Salmonella typhimurium; agar dilution; read-out: MIC
Procedure: as §1, §2
S.t., Salmonella typhimurium;

[6] = tested on: Pseudomonas aeruginosa 1771 M; details: P.a.4, Pseudomonas aeruginosa 1771 M; agar dilution; read-out: MIC
Procedure: as §1, §2
P.a.4, Pseudomonas aeruginosa 1771 M;

[7] = tested on: Klebsiella aerogenes 1552 E; details: K.a., Klebsiella aerogenes 1552 E; agar dilution; read-out: MIC
Procedure: as §1, §2
K.a., Klebsiella aerogenes 1552 E;

[8] = tested on: Staphylococcus aureus 285; details: S.a.2, Staphylococcus aureus 285; agar dilution; read-out: MIC
Procedure: as §1, §2
E.c. TEM, S.a. 2, Staphylococcus aureus 285;

[9] = tested on: Streptococcus pyogenes 308 A; details: S.p.1, Streptococcus pyogenes 308 A; agar dilution; read-out: MIC
Procedure: as §1, §2
S.p.1, Streptococcus pyogenes 308 A;

[10] = tested on: Klebsiella oxytoca 1082 E; details: K.o., Klebsiella oxytoca 1082 E; agar dilution; read-out: MIC
Procedure: as §1, §2
K.o., Klebsiella oxytoca 1082 E;

[11] = tested on: Pseudomonas aeruginosa 9027; details: P.a.1, Pseudomonas aeruginosa 9027; agar dilution; read-out: MIC
Procedure: as §1, §2
P.a.1, Pseudomonas aeruginosa 9027;

[12] = tested on: Enterobacter cloacae P 99; details: Enterobacter cloacae, P99
Procedure: as §1, §2
En.c.1, Enterobacter cloacae P 99;

[13] = tested on: Staphlococcus aureus SG 511; details: S.a.1, Staphlococcus aureus SG 511; agar dilution; read-out: MIC
Procedure: as §1, §2
S.a.1, Staphlococcus aureus SG 511;

Escherichia coli 1507 E = details: E.c.4, Escherichia coli 1507 E
Procedure: as §1, §2
E.c.4, Escherichia coli 1507 E;

SMILES	MIC (Escherichia coli TEM)	MIC [1]	MIC (Escherichia coli O55)	MIC [2]	MIC [3]	MIC [4]	MIC (Escherichia coli DC0)	MIC (Streptococcus faecium MD)	MIC [5]	MIC (E.c.5)	MIC (Salmonella typhimurium)	MIC [6]	MIC [7]	MIC [8]	MIC [9]	MIC [10]	MIC [11]	MIC [12]	MIC [13]	MIC (Escherichia coli 1507 E)
CO/N=C(\C(=O)N[C@@H]1C(=O)N2C(C(=O)[O-])=C(/C=C/C[N+]3(C)CC[C@H](O)[C@H](O)C3)CS[C@H]12)c1csc(N)n1 (relative stereo) [1-e, 7β-[2-(2-Aminothiazol-4-yl)-(Z)-2-methoxyiminoacetamido]-3-[(E)-3-(3,4-cis-dihydroxy-1-methyl-1-piperidinio)-1-propen-1-yl]-3-cephem-4-carboxylate]	0.025 µg/mL (≈ 0.0452 µM)	0.025 µg/mL (≈ 0.0452 µM)	0.025 µg/mL (≈ 0.0452 µM)	3.13 µg/mL (≈ 5.66 µM)	0.013 µg/mL (≈ 0.0235 µM)	1.56 µg/mL (≈ 2.82 µM)	0.049 µg/mL (≈ 0.0887 µM)	50 µg/mL (≈ 90.5 µM)	0.2 µg/mL (≈ 0.362 µM)	0.049 µg/mL (≈ 0.0887 µM)	0.025 µg/mL (≈ 0.0452 µM)	0.2 µg/mL (≈ 0.362 µM)	0.025 µg/mL (≈ 0.0452 µM)	0.78 µg/mL (≈ 1.41 µM)	0.013 µg/mL (≈ 0.0235 µM)	3.13 µg/mL (≈ 5.66 µM)	6.25 µg/mL (≈ 11.3 µM)	6.25 µg/mL (≈ 11.3 µM)	0.39 µg/mL (≈ 0.706 µM)	0.049 µg/mL (≈ 0.0887 µM)
CO/N=C(\C(=O)N[C@@H]1C(=O)N2C(C(=O)[O-])=C(/C=C/C[N+]3(C)CC[C@@H](O)[C@H](O)C3)CS[C@H]12)c1csc(N)n1 (relative stereo) [1-f, 7β-[2-(2-Aminothiazol-4-yl)-(Z)-2-methoxyiminoacetamido]-3-[(E)-3-(3,4-trans-dihydroxy-1-methyl-1-piperidinio)-1-propen-1-yl]-3-cephem-4-carboxylate]	0.025 µg/mL (≈ 0.0452 µM)	0.025 µg/mL (≈ 0.0452 µM)	0.025 µg/mL (≈ 0.0452 µM)	1.56 µg/mL (≈ 2.82 µM)	0.013 µg/mL (≈ 0.0235 µM)	0.78 µg/mL (≈ 1.41 µM)	0.049 µg/mL (≈ 0.0887 µM)	50 µg/mL (≈ 90.5 µM)	0.2 µg/mL (≈ 0.362 µM)	0.049 µg/mL (≈ 0.0887 µM)	0.025 µg/mL (≈ 0.0452 µM)	0.098 µg/mL (≈ 0.177 µM)	0.025 µg/mL (≈ 0.0452 µM)	0.78 µg/mL (≈ 1.41 µM)	0.013 µg/mL (≈ 0.0235 µM)	3.13 µg/mL (≈ 5.66 µM)	3.13 µg/mL (≈ 5.66 µM)	12.5 µg/mL (≈ 22.6 µM)	0.39 µg/mL (≈ 0.706 µM)	0.049 µg/mL (≈ 0.0887 µM)
CO/N=C(\C(=O)N[C@@H]1C(=O)N2C(C(=O)[O-])=C(/C=C/C[N+]3(C)C[C@@H](O)[C@@H](O)C3)CS[C@H]12)c1csc(N)n1 (stereo partly drawn) [1-a, 7β-[2-(2-Aminothiazol-4-yl)-(Z)-2-methoxyiminoacetamido]-3-[(E)-3-(meso-3,4-dihydroxy-1-methyl-1-pyrrolidinio)-1-propen-1-yl]-3-cephem-4-carboxylate]	0.025 µg/mL (≈ 0.0464 µM)	0.013 µg/mL (≈ 0.0241 µM)	0.013 µg/mL (≈ 0.0241 µM)	3.13 µg/mL (≈ 5.81 µM)	0.013 µg/mL (≈ 0.0241 µM)	1.56 µg/mL (≈ 2.9 µM)	0.049 µg/mL (≈ 0.091 µM)	50 µg/mL (≈ 92.8 µM)	0.2 µg/mL (≈ 0.371 µM)	0.049 µg/mL (≈ 0.091 µM)	0.013 µg/mL (≈ 0.0241 µM)	0.098 µg/mL (≈ 0.182 µM)	0.025 µg/mL (≈ 0.0464 µM)	0.78 µg/mL (≈ 1.45 µM)	0.013 µg/mL (≈ 0.0241 µM)	3.13 µg/mL (≈ 5.81 µM)	3.13 µg/mL (≈ 5.81 µM)	6.25 µg/mL (≈ 11.6 µM)	0.39 µg/mL (≈ 0.724 µM)	0.049 µg/mL (≈ 0.091 µM)
CO/N=C(\C(=O)N[C@@H]1C(=O)N2C(C(=O)[O-])=C(/C=C/C[N+]3(C)C[C@H](O)[C@@H](O)C3)CS[C@H]12)c1csc(N)n1 [1-b, 7β-[2-(2-Aminothiazol-4-yl)-(Z)-2-methoxyiminoacetamido]-3-[(E)-3-(3S,4S-dihydroxy-1-methyl-1-pyrrolidinio)-1-propen-1-yl]-3-cephem-4-carboxylate]	0.025 µg/mL (≈ 0.0464 µM)	0.013 µg/mL (≈ 0.0241 µM)	0.025 µg/mL (≈ 0.0464 µM)	1.56 µg/mL (≈ 2.9 µM)	0.007 µg/mL (≈ 0.013 µM)	1.56 µg/mL (≈ 2.9 µM)	0.049 µg/mL (≈ 0.091 µM)	50 µg/mL (≈ 92.8 µM)	0.2 µg/mL (≈ 0.371 µM)	0.049 µg/mL (≈ 0.091 µM)	0.025 µg/mL (≈ 0.0464 µM)	0.098 µg/mL (≈ 0.182 µM)	0.025 µg/mL (≈ 0.0464 µM)	0.78 µg/mL (≈ 1.45 µM)	0.013 µg/mL (≈ 0.0241 µM)	0.78 µg/mL (≈ 1.45 µM)	3.13 µg/mL (≈ 5.81 µM)	3.13 µg/mL (≈ 5.81 µM)	0.39 µg/mL (≈ 0.724 µM)	0.049 µg/mL (≈ 0.091 µM)
